For 35 molecules, IC50 results are on record in patent publication US10442803B2, “Tricyclic heterocycles as bet protein inhibitors” (Incyte Corporation, priority 2013, dated 2019).

Where a name gives a salt, the structure may show the parent alone.

As usually defined, the IC50 is the concentration at which inhibition is half-maximal.

The subject of the assay is KMS.12.BM cells. Briefly: KMS.12.BM cell viability assay. To be noted: 72 h; KMS.12.BM human myeloma cells, 3 days, Cell Titer-GLO ATP quantitation; read-out: KMS cellular IC50. The format is cell-based. As to the method:
KMS.12.BM cell line (human myeloma) was purchased from JCRB (Osaka, Japan) and maintained in RPMI with 10% FBS culture medium. To measure the cytotoxic activity of the compounds through ATP quantitation, the KMS.12.BM cells are plated in the RPMI culture medium at 5000 cells/well/per 100 μL into a 96-well polystyrene clear black tissue culture plate (Greiner-bio-one through VWR, NJ), in the presence or absence of a concentration range of test compounds. After 3 days, […] Cell Titer-GLO Luminescent (Promega, Madison, Wis.) cell culture agent is added to each well for 10 minutes at room temperature to stabilize the luminescent signal. This determines the number of viable cells in culture based on quantitation of the ATP present, which signals the presence of metabolically active cells. Luminescence is measured with the Top Count 384 (Packard Bioscience through Perkin Elmer, Boston, Mass.).
IC50 data for the Examples is presented in Table 4 as determined by Assay B1.
On the technique in general: ATP-based viability assays read luminescence as a measure of living cells.
Consider `Cc1cc2c(ccc3nnc(C)n32)n1Cc1cccc(C(=O)NO)c1` [Example 31, 3-[(1,7-dimethyl-6H-pyrrolo[2,3-e][1,2,4]triazolo[4,3-a]pyridin-6-yl)methyl]-N-hydroxybenzamide trifluoroacetate salt], for which the 50% inhibitory concentration (IC50) lay in the range of 1000 to 10000 nM.
For `CNC(=O)c1cccc(Cn2c(C)cc3c2ccc2nnc(C)n23)c1` [Example 32, 3-[(1,7-dimethyl-6H-pyrrolo[2,3-e][1,2,4]triazolo[4,3-a]pyridin-6-yl)methyl]-N-methylbenzamide trifluoroacetate salt], the 50% inhibitory concentration (IC50) is at most 1000 nM.
The same measure for `CCNC(=O)c1cccc(Cn2c(C)cc3c2ccc2nnc(C)n23)c1` [Example 33, 3-[(1,7-dimethyl-6H-pyrrolo[2,3-e][1,2,4]triazolo[4,3-a]pyridin-6-yl)methyl]-N-ethylbenzamide trifluoroacetate salt]: at most 1000 nM.
For `COc1ccc(Cn2c(C)cc3c2ccc2nnc(C)n23)cc1` [Example 34, 6-(4-methoxybenzyl)-1,7-dimethyl-6H-pyrrolo[2,3-e][1,2,4]triazolo[4,3-a]pyridine], the 50% inhibitory concentration (IC50) is at most 1000 nM.
With `Cc1cc2c(ccc3nnc(C)n32)n1Cc1ccc(O)cc1` [Example 35, 4-[(1,7-dimethyl-6H-pyrrolo[2,3-e][1,2,4]triazolo[4,3-a]pyridin-6-yl)methyl]phenol] the figure was at most 1000 nM.
On to `Cc1cc2c(ccc3nnc(C)n32)n1Cc1cccc(CNCCO)c1` [Example 36, 2-({3-[(1,7-dimethyl-6H-pyrrolo[2,3-e][1,2,4]triazolo[4,3-a]pyridin-6-yl)methyl]benzyl}amino)ethanol], for which the IC50 was at most 1000 nM.
With `Cc1cc2c(ccc3nnc(C)n32)n1Cc1cccc(CN(C)CCO)c1` [Example 37, 2-[{3-[(1,7-dimethyl-6H-pyrrolo[2,3-e][1,2,4]triazolo[4,3-a]pyridin-6-yl)methyl]benzyl}(methyl)amino]ethanol] the figure was at most 1000 nM; with `Cc1cc2c(ccc3nnc(C)n32)n1Cc1cccc(CN2CCOCC2)c1` [Example 38, 1,7-dimethyl-6-[3-(morpholin-4-ylmethyl)benzyl]-6H-pyrrolo[2,3-e][1,2,4]triazolo[4,3-a]pyridine], at most 1000 nM; with `Cc1cc2c(ccc3nnc(C)n32)n1Cc1cccc(CN[C@H]2C[C@H](O)C2)c1` [Example 39, (1r,3r)-3-((3-((1,7-dimethyl-6H-pyrrolo[2,3-e][1,2,4]triazolo[4,3-a]pyridin-6-yl)methyl)benzyl)amino)cyclobutanol], at most 1000 nM.
With `Cc1cc2c(ccc3nnc(C)n32)n1Cc1cccc(CN(C)C)c1` [Example 40, 1-{3-[(1,7-dimethyl-6H-pyrrolo[2,3-e][1,2,4]triazolo[4,3-a]pyridin-6-yl)methyl]phenyl}-N,N-dimethylmethanamine] the figure was at most 1000 nM; with `CNCc1cccc(Cn2c(C)cc3c2ccc2nnc(C)n23)c1` [Example 41, 1-{3-[(1,7-dimethyl-6H-pyrrolo[2,3-e][1,2,4]triazolo[4,3-a]pyridin-6-yl)methyl]phenyl}-N-methylmethanamine], at most 1000 nM.
`CCNCc1cccc(Cn2c(C)cc3c2ccc2nnc(C)n23)c1` [Example 42, N-{3-[(1,7-dimethyl-6H-pyrrolo[2,3-e][1,2,4]triazolo[4,3-a]pyridin-6-yl)methyl]benzyl}ethanamine]: the 50% inhibitory concentration (IC50) was at most 1000 nM.
For the molecule `CCNC(=O)Nc1cccc(Cn2c(C)cc3c2ccc2nnc(C)n23)c1` [Example 43, N-{3-[(1,7-dimethyl-6H-pyrrolo[2,3-e][1,2,4]triazolo[4,3-a]pyridin-6-yl)methyl]phenyl}-N′-ethylurea trifluoroacetate salt], the IC50 lay within 1000 to 10000 nM.
With `Cc1cc2c(ccc3nnc(C)n32)n1Cc1cccc(NC(N)=O)c1` [Example 44, N-{3-[(1,7-dimethyl-6H-pyrrolo[2,3-e][1,2,4]triazolo[4,3-a]pyridin-6-yl)methyl]phenyl}urea] the figure was 1000 to 10000 nM.
On to `Cc1cc2c(ccc3nnc(C)n32)n1Cc1cccc(CN2CCCC2)c1` [Example 45, 1,7-dimethyl-6-[3-(pyrrolidin-1-ylmethyl)benzyl]-6H-pyrrolo[2,3-e][1,2,4]triazolo[4,3-a]pyridine], for which the IC50 was at most 1000 nM.
`Cc1cc2c(ccc3nnc(C)n32)n1Cc1cccc(CN2CCCCC2)c1` [Example 46, 1,7-dimethyl-6-[3-(piperidin-1-ylmethyl)benzyl]-6H-pyrrolo[2,3-e][1,2,4]triazolo[4,3-a]pyridine]: the IC50 is at most 1000 nM.
With `Cc1cc2c(ccc3nnc(C)n32)n1Cc1cccc(CN2CCN(C)CC2)c1` [Example 47, 1,7-dimethyl-6-{3-[(4-methylpiperazin-1-yl)methyl]benzyl}-6H-pyrrolo[2,3-e][1,2,4]triazolo[4,3-a]pyridine] the figure was 1000 to 10000 nM; with `Cc1cc2c(ccc3nnc(C)n32)n1Cc1cccc(CN2CCNCC2)c1` [Example 48, 1,7-dimethyl-6-[3-(piperazin-1-ylmethyl)benzyl]-6H-pyrrolo[2,3-e][1,2,4]triazolo[4,3-a]pyridine], 1000 to 10000 nM; with `Cc1cc2c(ccc3nnc(C)n32)n1Cc1ccc(CO)cc1` [Example 49, {4-[(1,7-dimethyl-6H-pyrrolo[2,3-e][1,2,4]triazolo[4,3-a]pyridin-6-yl)methyl]phenyl}methanol], at most 1000 nM.
For the molecule `Cc1cc2c(ccc3nnc(C)n32)n1Cc1ccc(CN2CCC2)cc1` [Example 50, 6-[4-(azetidin-1-ylmethyl)benzyl]-1,7-dimethyl-6H-pyrrolo[2,3-e][1,2,4]triazolo[4,3-a]pyridine], the IC50 lay within 1000 to 10000 nM.
With `Cc1cc2c(ccc3nnc(C)n32)n1Cc1ccc(CN2CC(O)C2)cc1` [Example 52, 1-{4-[(1,7-dimethyl-6H-pyrrolo[2,3-e][1,2,4]triazolo[4,3-a]pyridin-6-yl)methyl]benzyl}azetidin-3-ol] the figure was 1000 to 10000 nM; with `Cc1cc2c(ccc3nnc(C)n32)n1Cc1ccc(CN(C)C)cc1` [Example 53, 1-{4-[(1,7-dimethyl-6H-pyrrolo[2,3-e][1,2,4]triazolo[4,3-a]pyridin-6-yl)methyl]phenyl}-N,N-dimethylmethanamine], 1000 to 10000 nM.
Regarding `COC1CN(Cc2cccc(Cn3c(C)cc4c3ccc3nnc(C)n34)c2)C1` [Example 54, 6-{3-[(3-methoxyazetidin-1-yl)methyl]benzyl}-1,7-dimethyl-6H-pyrrolo[2,3-e][1,2,4]triazolo[4,3-a]pyridine], the IC50 was at most 1000 nM.
With `Cc1nc2c(ccc3nnc(C)n32)n1Cc1ccccc1` [Example 55, 3-benzyl-2,8-dimethyl-3H-imidazo[4,5-e][1,2,4]triazolo[4,3-a]pyridine] the figure was at most 1000 nM; with `Cc1nnc2ccc3c(cc(CO)n3Cc3ccccc3)n12` [Example 56, (6-benzyl-1-methyl-6H-pyrrolo[2,3-e][1,2,4]triazolo[4,3-a]pyridin-7-yl)methanol], 1000 to 10000 nM; with `Cc1nnc2ccc3c(cc(Cn4ccnc4)n3Cc3ccccc3)n12` [Example 57, 6-benzyl-7-(1H-imidazol-1-ylmethyl)-1-methyl-6H-pyrrolo[2,3-e][1,2,4]triazolo[4,3-a]pyridine], 1000 to 10000 nM.
Turning to `Cc1nnc2ccc3c(cc(C(N)=O)n3Cc3ccccc3)n12` [Example 58, 6-benzyl-1-methyl-6H-pyrrolo[2,3-e][1,2,4]triazolo[4,3-a]pyridine-7-carboxamide], the IC50 was at most 1000 nM.
The same measure for `CCNC(=O)c1cc2c(ccc3nnc(C)n32)n1Cc1ccccc1` [Example 59, 6-benzyl-N-ethyl-1-methyl-6H-pyrrolo[2,3-e][1,2,4]triazolo[4,3-a]pyridine-7-carboxamide]: at most 1000 nM.
Regarding `Cc1nnc2ccc3c(cc(C(=O)N4CC(C#N)C4)n3Cc3ccccc3)n12` [Example 60, 1-[(6-benzyl-1-methyl-6H-pyrrolo[2,3-e][1,2,4]triazolo[4,3-a]pyridin-7-yl)carbonyl]azetidine-3-carbonitrile], the IC50 was at most 1000 nM.
With `Cc1nnc2ccc3c(cc(CCO)n3Cc3ccccc3)n12` [Example 61, 2-(6-benzyl-1-methyl-6H-pyrrolo[2,3-e][1,2,4]triazolo[4,3-a]pyridin-7-yl)ethanol] the figure was 1000 to 10000 nM; with `Cc1nnc2ccc3c(cc(-c4ccn[nH]4)n3Cc3ccccc3)n12` [Example 62, 6-benzyl-1-methyl-7-(1H-pyrazol-5-yl)-6H-pyrrolo[2,3-e][1,2,4]triazolo[4,3-a]pyridine], at most 1000 nM.
With `Cc1nnc2ccc3c(cc(-c4cn[nH]c4)n3Cc3ccccc3)n12` [Example 63, 6-benzyl-1-methyl-7-(1H-pyrazol-4-yl)-6H-pyrrolo[2,3-e][1,2,4]triazolo[4,3-a]pyridine] the figure was at most 1000 nM.
As for `Cc1nnc2ccc3c(cc(-c4cnn(CC#N)c4)n3Cc3ccccc3)n12` [Example 64, [4-(6-benzyl-1-methyl-6H-pyrrolo[2,3-e][1,2,4]triazolo[4,3-a]pyridin-7-yl)-1H-pyrazol-1-yl]acetonitrile], the half-inhibitory concentration (IC50) is at most 1000 nM.
For the molecule `Cc1nnc2ccc3c(cc(-c4ccn(CC#N)n4)n3Cc3ccccc3)n12` [Example 65, [3-(6-benzyl-1-methyl-6H-pyrrolo[2,3-e][1,2,4]triazolo[4,3-a]pyridin-7-yl)-1H-pyrazol-1-yl]acetonitrile], the concentration for half-maximal inhibition (IC50) is at most 1000 nM.
With `Cc1nnc2ccc3c(cc(-c4cscn4)n3Cc3ccccc3)n12` [Example 66, 6-benzyl-1-methyl-7-(1,3-thiazol-4-yl)-6H-pyrrolo[2,3-e][1,2,4]triazolo[4,3-a]pyridine] the figure was at most 1000 nM.
